Drawing on ChEMBL document CHEMBL1938230, “6-Position optimization of tricyclic 4-quinolone-based inhibitors of glycogen synthase kinase-3β: discovery of nitrile derivatives with picomolar potency” (Bioorg Med Chem Lett, 2012), this text covers inhibition and MIC for 4 compounds.

The structures appear in SMILES notation. Values after ≈ are worked out from the molar mass of the structure shown.

What is called inhibition is the percentage by which the read-out fell short of the control.

For data set [1], the target named is T1, Serine/threonine-protein kinase TAO2 (Homo sapiens) (UniProt Q9UL54).
T1 sequence (whole entry): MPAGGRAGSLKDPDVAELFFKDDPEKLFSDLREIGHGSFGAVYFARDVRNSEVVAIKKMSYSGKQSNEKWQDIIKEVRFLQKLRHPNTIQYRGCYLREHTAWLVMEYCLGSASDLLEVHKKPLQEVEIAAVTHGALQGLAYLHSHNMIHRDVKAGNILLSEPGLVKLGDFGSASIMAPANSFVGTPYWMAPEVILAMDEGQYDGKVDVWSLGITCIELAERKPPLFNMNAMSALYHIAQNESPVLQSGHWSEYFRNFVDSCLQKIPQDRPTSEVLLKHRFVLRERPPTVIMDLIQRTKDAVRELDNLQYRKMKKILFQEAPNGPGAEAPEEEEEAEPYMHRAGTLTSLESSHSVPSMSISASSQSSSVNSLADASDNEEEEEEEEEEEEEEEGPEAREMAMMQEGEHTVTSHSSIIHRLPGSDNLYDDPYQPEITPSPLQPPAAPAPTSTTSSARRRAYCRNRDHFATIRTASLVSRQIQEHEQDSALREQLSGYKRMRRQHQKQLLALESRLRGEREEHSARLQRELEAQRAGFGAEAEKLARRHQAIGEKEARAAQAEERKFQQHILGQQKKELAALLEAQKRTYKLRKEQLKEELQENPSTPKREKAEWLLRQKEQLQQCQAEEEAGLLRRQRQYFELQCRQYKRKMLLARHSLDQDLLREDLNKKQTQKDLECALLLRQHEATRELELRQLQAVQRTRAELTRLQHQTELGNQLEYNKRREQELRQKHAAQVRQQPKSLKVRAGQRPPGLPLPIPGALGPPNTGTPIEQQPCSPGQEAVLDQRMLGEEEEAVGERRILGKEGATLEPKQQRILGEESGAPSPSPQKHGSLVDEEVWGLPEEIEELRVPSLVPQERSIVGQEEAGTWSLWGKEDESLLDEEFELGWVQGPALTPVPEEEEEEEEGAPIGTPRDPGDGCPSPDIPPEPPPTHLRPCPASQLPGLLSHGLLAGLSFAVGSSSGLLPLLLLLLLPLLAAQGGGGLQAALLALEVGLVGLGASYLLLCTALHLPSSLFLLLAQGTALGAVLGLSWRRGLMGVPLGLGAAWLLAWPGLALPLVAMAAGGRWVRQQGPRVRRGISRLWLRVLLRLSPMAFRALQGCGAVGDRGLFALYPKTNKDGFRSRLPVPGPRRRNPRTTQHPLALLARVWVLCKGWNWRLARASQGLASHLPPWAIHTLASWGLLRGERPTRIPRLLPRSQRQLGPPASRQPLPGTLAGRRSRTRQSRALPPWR
Put plainly: Inhibition of human TAO2 in HL-60 cells lysate assessed as reduction of labeling of acyl-phosphate ATP probe at 100 nM. The data set is classed as cell-free.

Data set [2] addresses Tyrosine-protein kinase Fes/Fps (Homo sapiens) (UniProt P07332). Kind of data set: Inhibition of human FES in HL-60 cells lysate assessed as reduction of labeling of acyl-phosphate ATP probe at 100 nM. The class given is cell-free.
The target of data set [3] is Serine/threonine-protein kinase Nek6 (Homo sapiens) (UniProt Q9HC98). Put plainly: Inhibition of human NEK6 in HL-60 cells lysate assessed as reduction of labeling of acyl-phosphate ATP probe at 100 nM. The data set is classed as cell-free.
Data set [4] concerns the target Phosphatidylinositol 4,5-bisphosphate 3-kinase catalytic subunit gamma isoform (Homo sapiens) (UniProt P48736). Put plainly: Inhibition of human PIK3CG in HL-60 cells lysate assessed as reduction of labeling of acyl-phosphate ATP probe at 100 nM. The class given is cell-free.
The target of data set [5] is Cyclin-dependent kinase 9 (Homo sapiens) (UniProt P50750). Kind of data set: Inhibition of human CDK9 in HL-60 cells lysate assessed as reduction of labeling of acyl-phosphate ATP probe at 100 nM. The class given is cell-free.
Data set [6] deals with Escherichia coli. Kind of data set: Antibacterial activity against Escherichia coli ATCC 8739. The data set is classed as ADME, organism-based.
Data set [7] has as its target Tyrosine-protein kinase Fgr (Homo sapiens) (UniProt P09769). Put plainly: Inhibition of human FGR in HL-60 cells lysate assessed as reduction of labeling of acyl-phosphate ATP probe at 100 nM. The class given is cell-free.
The target of data set [8] is Tyrosine-protein kinase Lyn (Homo sapiens) (UniProt P07948). Put plainly: Inhibition of human LYN in HL-60 cells lysate assessed as reduction of labeling of acyl-phosphate ATP probe at 100 nM. The class given is cell-free.
The target in data set [9] is Mitogen-activated protein kinase kinase kinase kinase 1 (Homo sapiens) (UniProt Q92918). Kind of data set: Inhibition of human HPK1 in HL-60 cells lysate assessed as reduction of labeling of acyl-phosphate ATP probe at 100 nM. The data set is classed as cell-free.
Data set [10] deals with Interleukin-1 receptor-associated kinase 1 (Homo sapiens) (UniProt P51617). Kind of data set: Inhibition of human IRAK1 in HL-60 cells lysate assessed as reduction of labeling of acyl-phosphate ATP probe at 100 nM. The class given is cell-free.
Data set [11] has as its target Mitogen-activated protein kinase 14 (Homo sapiens) (UniProt Q16539). Put plainly: Inhibition of human P38alpha in HL-60 cells lysate assessed as reduction of labeling of acyl-phosphate ATP probe at 100 nM. The class given is cell-free.
The target of data set [12] is T2, Mitogen-activated protein kinase kinase kinase 3 (Homo sapiens) (UniProt Q99759).
T2 sequence (whole entry): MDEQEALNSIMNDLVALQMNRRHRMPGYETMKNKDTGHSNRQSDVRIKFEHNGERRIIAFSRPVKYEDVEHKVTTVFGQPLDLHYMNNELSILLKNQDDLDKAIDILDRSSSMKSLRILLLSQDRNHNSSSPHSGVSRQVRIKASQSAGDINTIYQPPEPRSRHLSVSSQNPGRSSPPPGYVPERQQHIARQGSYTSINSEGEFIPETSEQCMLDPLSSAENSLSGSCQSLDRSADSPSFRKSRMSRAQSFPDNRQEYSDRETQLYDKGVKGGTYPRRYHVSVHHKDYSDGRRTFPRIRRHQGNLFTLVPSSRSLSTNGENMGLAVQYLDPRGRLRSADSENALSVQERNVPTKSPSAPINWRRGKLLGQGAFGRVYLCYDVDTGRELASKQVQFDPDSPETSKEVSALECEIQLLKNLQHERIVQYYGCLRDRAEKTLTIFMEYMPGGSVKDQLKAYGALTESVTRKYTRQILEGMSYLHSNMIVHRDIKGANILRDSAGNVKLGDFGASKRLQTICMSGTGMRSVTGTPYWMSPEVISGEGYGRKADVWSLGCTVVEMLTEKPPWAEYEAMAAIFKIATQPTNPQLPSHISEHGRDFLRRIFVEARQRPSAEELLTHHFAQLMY
Put plainly: Inhibition of human MAP3K3 in HL-60 cells lysate assessed as reduction of labeling of acyl-phosphate ATP probe at 100 nM. The data set is classed as cell-free.

Sequence of Mitogen-activated protein kinase 14 (Homo sapiens) (Q16539 whole entry): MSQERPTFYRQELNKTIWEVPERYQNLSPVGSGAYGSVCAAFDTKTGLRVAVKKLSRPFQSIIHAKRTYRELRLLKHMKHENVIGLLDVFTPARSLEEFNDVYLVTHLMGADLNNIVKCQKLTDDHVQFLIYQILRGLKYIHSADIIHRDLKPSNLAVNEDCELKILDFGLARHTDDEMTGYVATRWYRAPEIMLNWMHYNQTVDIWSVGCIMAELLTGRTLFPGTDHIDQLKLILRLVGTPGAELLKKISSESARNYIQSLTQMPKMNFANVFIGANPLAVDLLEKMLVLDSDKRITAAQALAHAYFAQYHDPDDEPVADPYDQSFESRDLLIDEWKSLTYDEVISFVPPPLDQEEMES
Sequence of Tyrosine-protein kinase Lyn (Homo sapiens) (P07948 2-512 limits assumed): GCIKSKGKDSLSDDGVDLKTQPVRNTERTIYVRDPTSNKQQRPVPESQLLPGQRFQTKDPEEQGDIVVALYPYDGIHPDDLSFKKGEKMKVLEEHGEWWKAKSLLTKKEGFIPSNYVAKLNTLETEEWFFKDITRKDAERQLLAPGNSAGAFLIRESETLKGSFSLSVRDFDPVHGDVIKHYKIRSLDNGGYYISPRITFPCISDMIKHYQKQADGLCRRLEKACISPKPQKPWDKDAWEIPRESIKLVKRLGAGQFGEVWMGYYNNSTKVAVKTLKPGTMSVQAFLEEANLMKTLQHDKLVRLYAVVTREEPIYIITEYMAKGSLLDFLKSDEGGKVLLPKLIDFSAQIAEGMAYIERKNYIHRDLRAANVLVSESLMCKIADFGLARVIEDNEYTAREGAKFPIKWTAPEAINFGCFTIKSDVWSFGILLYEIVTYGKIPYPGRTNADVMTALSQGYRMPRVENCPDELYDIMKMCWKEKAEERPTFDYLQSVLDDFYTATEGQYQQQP
Sequence of Tyrosine-protein kinase Fes/Fps (Homo sapiens) (P07332 whole entry): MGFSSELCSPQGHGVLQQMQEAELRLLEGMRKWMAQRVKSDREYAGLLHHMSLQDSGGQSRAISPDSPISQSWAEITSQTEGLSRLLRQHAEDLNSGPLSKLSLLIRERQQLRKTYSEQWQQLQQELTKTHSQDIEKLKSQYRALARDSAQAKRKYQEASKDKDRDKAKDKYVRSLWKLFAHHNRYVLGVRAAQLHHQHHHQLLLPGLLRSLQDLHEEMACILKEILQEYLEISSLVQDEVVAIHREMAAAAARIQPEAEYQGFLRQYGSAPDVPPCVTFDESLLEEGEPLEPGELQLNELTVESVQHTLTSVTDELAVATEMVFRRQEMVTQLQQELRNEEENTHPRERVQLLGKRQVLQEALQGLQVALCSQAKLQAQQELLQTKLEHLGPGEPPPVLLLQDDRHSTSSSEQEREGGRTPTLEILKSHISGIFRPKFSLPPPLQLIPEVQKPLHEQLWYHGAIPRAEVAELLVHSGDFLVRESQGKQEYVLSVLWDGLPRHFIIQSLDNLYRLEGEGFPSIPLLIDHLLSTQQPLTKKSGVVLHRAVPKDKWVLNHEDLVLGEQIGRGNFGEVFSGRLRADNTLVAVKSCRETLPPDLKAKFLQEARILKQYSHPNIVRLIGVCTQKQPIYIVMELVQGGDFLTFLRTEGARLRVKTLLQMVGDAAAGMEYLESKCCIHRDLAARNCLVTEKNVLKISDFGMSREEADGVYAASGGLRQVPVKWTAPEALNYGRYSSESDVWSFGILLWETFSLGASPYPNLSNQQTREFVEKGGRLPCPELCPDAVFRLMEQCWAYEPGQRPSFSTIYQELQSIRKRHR
Sequence of Mitogen-activated protein kinase kinase kinase kinase 1 (Homo sapiens) (Q92918 whole entry, looked up): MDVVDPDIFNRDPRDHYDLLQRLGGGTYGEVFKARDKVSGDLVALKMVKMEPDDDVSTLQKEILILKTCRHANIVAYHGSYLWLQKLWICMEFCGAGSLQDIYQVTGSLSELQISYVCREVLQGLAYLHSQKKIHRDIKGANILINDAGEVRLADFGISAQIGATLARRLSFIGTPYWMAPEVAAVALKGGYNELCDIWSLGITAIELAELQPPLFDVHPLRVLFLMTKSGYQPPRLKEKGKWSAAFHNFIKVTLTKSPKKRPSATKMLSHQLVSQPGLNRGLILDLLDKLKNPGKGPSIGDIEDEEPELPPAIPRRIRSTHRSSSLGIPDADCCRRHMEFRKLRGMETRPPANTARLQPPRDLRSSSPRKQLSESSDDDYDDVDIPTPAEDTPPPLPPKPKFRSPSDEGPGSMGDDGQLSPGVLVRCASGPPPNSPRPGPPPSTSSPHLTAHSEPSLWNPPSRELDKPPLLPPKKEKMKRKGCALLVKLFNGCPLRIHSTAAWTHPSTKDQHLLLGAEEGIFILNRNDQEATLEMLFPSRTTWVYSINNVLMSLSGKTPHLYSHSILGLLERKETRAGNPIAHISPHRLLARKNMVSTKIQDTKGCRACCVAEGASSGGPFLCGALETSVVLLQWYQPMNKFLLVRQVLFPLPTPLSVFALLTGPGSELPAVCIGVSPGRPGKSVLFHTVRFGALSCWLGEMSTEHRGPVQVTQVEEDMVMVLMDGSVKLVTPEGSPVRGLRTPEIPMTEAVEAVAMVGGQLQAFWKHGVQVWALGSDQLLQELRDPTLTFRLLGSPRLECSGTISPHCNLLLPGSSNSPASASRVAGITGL
Sequence of Serine/threonine-protein kinase Nek6 (Homo sapiens) (Q9HC98 whole entry, canonical isoform): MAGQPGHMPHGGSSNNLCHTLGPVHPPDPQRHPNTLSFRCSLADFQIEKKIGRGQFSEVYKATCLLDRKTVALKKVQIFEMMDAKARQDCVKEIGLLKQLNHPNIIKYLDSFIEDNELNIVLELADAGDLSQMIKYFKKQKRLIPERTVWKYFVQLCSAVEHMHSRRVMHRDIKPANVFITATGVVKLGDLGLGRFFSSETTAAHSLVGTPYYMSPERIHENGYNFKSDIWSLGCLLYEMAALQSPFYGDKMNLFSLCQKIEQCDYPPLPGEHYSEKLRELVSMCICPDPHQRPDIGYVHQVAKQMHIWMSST
Sequence of Interleukin-1 receptor-associated kinase 1 (Homo sapiens) (P51617 whole entry, looked up): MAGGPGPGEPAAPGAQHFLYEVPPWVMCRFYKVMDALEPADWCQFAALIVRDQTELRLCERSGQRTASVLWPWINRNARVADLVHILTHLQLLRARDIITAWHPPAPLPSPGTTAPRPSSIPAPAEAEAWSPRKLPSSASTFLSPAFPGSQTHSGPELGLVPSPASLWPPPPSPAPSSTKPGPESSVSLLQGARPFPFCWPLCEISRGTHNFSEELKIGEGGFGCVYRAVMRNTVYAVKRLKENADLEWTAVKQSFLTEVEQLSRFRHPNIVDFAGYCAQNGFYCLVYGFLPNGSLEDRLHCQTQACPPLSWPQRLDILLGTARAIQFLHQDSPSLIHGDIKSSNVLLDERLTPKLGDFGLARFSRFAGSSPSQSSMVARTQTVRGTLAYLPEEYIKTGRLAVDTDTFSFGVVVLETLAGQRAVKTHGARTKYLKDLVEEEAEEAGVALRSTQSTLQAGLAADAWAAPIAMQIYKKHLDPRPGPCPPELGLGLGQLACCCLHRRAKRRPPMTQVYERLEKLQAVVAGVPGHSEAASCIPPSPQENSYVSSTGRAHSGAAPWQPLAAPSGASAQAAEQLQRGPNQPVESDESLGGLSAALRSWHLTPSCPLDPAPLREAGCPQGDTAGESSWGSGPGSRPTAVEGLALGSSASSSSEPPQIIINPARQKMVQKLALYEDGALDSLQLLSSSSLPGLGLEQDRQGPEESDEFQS
Sequence of Phosphatidylinositol 4,5-bisphosphate 3-kinase catalytic subunit gamma isoform (Homo sapiens) (P48736 whole entry, looked up, canonical isoform): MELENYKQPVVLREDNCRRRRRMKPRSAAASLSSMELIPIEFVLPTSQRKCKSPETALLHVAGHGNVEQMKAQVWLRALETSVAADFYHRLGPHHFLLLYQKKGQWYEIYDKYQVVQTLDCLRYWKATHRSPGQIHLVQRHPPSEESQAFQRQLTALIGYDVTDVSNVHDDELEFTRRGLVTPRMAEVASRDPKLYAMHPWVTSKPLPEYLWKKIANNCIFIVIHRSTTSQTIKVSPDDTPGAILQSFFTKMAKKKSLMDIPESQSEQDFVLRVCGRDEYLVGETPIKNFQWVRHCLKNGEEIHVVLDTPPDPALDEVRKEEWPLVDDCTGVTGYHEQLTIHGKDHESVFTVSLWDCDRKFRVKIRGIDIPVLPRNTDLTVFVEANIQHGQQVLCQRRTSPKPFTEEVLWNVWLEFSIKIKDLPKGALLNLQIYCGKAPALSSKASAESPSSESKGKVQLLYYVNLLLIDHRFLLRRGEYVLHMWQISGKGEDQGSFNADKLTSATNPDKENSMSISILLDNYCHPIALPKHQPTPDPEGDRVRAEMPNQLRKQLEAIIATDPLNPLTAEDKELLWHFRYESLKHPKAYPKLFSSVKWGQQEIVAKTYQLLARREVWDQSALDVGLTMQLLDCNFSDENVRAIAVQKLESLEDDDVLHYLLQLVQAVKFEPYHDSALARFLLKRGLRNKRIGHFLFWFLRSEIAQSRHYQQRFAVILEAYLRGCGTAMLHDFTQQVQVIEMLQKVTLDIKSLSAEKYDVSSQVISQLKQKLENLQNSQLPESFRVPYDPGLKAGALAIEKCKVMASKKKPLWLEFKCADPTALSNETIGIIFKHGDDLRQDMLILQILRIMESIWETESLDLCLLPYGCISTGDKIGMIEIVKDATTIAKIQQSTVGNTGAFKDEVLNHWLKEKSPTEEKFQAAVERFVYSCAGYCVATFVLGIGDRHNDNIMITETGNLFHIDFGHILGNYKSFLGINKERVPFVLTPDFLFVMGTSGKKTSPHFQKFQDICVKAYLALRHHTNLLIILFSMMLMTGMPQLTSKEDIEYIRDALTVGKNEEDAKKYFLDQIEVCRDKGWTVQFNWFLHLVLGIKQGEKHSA
Sequence of Cyclin-dependent kinase 9 (Homo sapiens) (P50750 whole entry): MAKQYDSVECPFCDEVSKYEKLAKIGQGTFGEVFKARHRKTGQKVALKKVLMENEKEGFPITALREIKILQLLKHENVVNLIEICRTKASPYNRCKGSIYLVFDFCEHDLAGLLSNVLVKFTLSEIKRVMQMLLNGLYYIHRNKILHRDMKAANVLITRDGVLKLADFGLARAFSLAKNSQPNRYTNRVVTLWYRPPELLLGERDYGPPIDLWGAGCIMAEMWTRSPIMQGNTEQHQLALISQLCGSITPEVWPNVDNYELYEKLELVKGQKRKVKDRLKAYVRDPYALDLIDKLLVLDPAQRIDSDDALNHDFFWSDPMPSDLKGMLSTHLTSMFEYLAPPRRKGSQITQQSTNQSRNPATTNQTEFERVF

On to `C[C@H]1COc2c(NCCCc3ccccn3)c(F)c(N)c3c(=O)c(C#N)cn1c23`, for which the inhibition in [1], in [2], in data set [3], in [4], in [5] and in data set [7] was below 35% in each case. For the same compound, the inhibition in data set [8], in data set [9], in data set [10], in data set [11] and in data set [12] was below 35% throughout. In data set [6], the MIC is above 298 µM.
As to `C[C@H]1COc2c(NCCCc3ccccn3)c(F)c(N)c3c(=O)c(C(=O)O)cn1c23`, the inhibition in [1], in [2], in data set [3], in data set [4], in [5] and in data set [7] was below 35% throughout. Further, the inhibition in data set [8], in data set [9], in [10], in data set [11] and in data set [12] was below 35% throughout. For the same compound, the MIC in [6] turned out to be 19 µM (≈ 7.84 µg/mL).
Take `C[C@H]1COc2c(NCCCn3cccn3)c(F)c(N)c3c(=O)c(C(=O)O)cn1c23`: the inhibition in [1], in data set [2], in data set [3], in data set [4], in data set [5] and in [7] was below 35% each time. Also, the inhibition in data set [8], in data set [9], in [10], in [11] and in [12] was below 35% each time. In [6], this compound came in with an MIC of 20 µM (≈ 8.03 µg/mL).
For `C[C@H]1COc2c(NCCCn3cccn3)c(F)c(N)c3c(=O)c(C#N)cn1c23`, the inhibition in data set [1], in data set [2], in data set [3], in data set [4], in data set [5] and in [7] was below 35% each time. Also, the inhibition in data set [8], in [9], in data set [10], in [11] and in data set [12] was below 35% each time. This compound gave an MIC in data set [6] above 306 µM.
